{
  "source": "patent US5861498A",
  "about": "“Nucleotides encoding immunophilin FKBP46 and fragments thereof” (Thomas Jefferson University, priority 1996, dated 1999)",
  "key": {"FKBP46 [1]": {"target": "T1, FKBP46 (Spodoptera frugiperda, UniProt Q26486)", "T1 construct": "Nuclear extract containing full-length FKBP46; made in house", "T1 sequence (Q26486 1-412)": "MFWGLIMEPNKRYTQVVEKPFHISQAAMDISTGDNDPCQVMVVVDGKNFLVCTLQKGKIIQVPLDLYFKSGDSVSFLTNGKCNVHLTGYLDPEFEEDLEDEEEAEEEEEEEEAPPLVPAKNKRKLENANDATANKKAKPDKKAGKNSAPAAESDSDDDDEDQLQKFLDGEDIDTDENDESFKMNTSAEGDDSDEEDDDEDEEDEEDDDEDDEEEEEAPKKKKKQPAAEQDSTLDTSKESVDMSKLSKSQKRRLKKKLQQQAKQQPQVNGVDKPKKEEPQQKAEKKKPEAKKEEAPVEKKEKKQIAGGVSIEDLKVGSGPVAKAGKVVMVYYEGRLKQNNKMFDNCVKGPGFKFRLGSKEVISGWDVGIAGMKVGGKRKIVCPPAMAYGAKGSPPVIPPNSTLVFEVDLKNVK", "assay": "[3H]Dihydro-FK506 binding assay, His-FKBP46 immobilized on Ni2+ affinity resin", "parameters": "species or system Sf9 insect cell", "protocol": "(§1) FIGS. 3A and 3B show FK506 binding and Peptidylprolyl cis-trans isomerase activities of FKBP46. In FIG. 3A, purified His-FKBP46 immobilized on Ni^2+ affinity resin was incubated with [^3 H]dihydro-FK506 in the presence […] or absence of cold FK506. The numbers under each column represent different amounts of nuclear extracts in microliters from Sf9 cells--expressing His-FKBP46 bound to separate Ni^2+ affinity resins. Nuclear extracts from wild type (WT) baculovirus infected Sf9 cells (10 μl) were bound to Ni^2+ affinity resin and used as a control. The amount of radioactivity associated with each resin sample is represented in disintegrations/min. In FIG. 3B, time-dependant release of p-nitroanilide by chymotrypsin from trans N-succinyl-Ala-Leu-Pro-Phe-p-nitroanilide measured by absorbance at 400 nm. Curve A reflects the rate of release of p-nitroanilide in a reaction catalyzed by FKBP46. Curve B is the same as curve A but in the presence of 5 μM FK506. Curve C is the same but without FKBP46. […]\n(§2) The radioactivity associated with FKBP46 was measured by scintillation counting. […] Chymotrypsin hydrolyzes the trans form to generate p-nitroanilide, which can be quantitated spectrophotometrically at 400 nm. […] From these curves, the specific activity of FKBP46 was calculated using the first order rate constant (S^-1), and the molar concentration of FKBP46 to be about 7.8×10^6 […]. […]"}, "FKBP46 [2]": {"target": "T1, FKBP46", "assay": "Peptidylprolyl cis-trans isomerase assay, inhibition by FK506", "assay_type": "biochemical, Sf9 insect cell", "settings": "5 μM FK506, 100 nM His-FKBP46, 15° C.; FIG. 3B curve B", "protocol": "as §1, with “nm.” for “nm. Curve A reflects the rate of release of p-nitroanilide in a reaction catalyzed by FKBP46. Curve B is the same as curve A but in the presence of 5 μM FK506. Curve C is the same but without FKBP46.”\nPeptidylprolyl cis-trans Isomerase Assay--Peptidylprolyl isomerase activity of FKBP46 was assayed as described previously (Harrison, R. K., and Stein, R. L. (1990) Biochemistry 29, 3813-3816 and Park, S. T., et al. (1992) J. Biol. Chem. 267, 3316-3324) with some modifications. […] The reaction was started by the addition of chymotrypsin (100 μg/ml final) (Sigma), and the release of p-nitroanilide by chymotrypsin was measured by recording the increase in absorbance at 400 nm using a Perkin Elmer λ 3B spectrophotometer connected to a chart recorder. […]"}, "[3]": {"test_system": "N-succinyl-Ala-Leu-Pro-Phe-p-nitroanilide", "settings": "literature value for comparison (ref 19); cited from earlier work"}, "[4]": {"target": "N-succinyl-Ala-Leu-Pro-Phe-p-nitroanilide"}, "[5]": {"test_system": "N-succinyl-Ala-Leu-Pro-Phe-p-nitroanilide", "assay": "Peptidylprolyl cis-trans isomerase assay, specific activity of the immunophilin", "assay_type": "biochemical", "settings": "His-FKBP46 100 nM, substrate 75 μM, 15° C.", "protocol": "Peptidylprolyl cis-trans Isomerase Assay--Peptidylprolyl isomerase activity of FKBP46 was assayed as described previously (Harrison, R. K., and Stein, R. L. (1990) Biochemistry 29, 3813-3816 and Park, S. T., et al. (1992) J. Biol. Chem. 267, 3316-3324) with some modifications. His-FKBP46 (100 nM final) was incubated with the peptide substrate N-succinyl-Ala-Leu-Pro-Phe-p-nitroanilide (75 μM final) (Bachem, Switzerland) at 15° C. for 15 min. The reaction was started by the addition of chymotrypsin (100 μg/ml final) (Sigma), and the release of p-nitroanilide by chymotrypsin was measured by recording the increase in absorbance at 400 nm using a Perkin Elmer λ 3B spectrophotometer connected to a chart recorder.\nas §2, with “counting. […] Under these conditions, maximal binding was obtained when 10 μl of nuclear extracts containing recombinant His-FKBP46 were immobilized on Ni^2+ affinity resin (FIG. 3A, column 6).” for “counting.”"}},
  "data": [
    {"molecule": "C=CC[C@@H]1/C=C(\\C)C[C@H](C)C[C@H](OC)[C@H]2O[C@@](O)(C(=O)C(=O)N3CCCC[C@H]3C(=O)O[C@H](/C(C)=C/[C@@H]3CC[C@@H](O)[C@H](OC)C3)[C@H](C)[C@@H](O)CC1=O)[C@H](C)C[C@@H]2OC", "note": "[FK506]", "values": [
      {"measurement": "[3H]dihydro-FK506 binding to FKBP46 in the presence of excess cold FK506", "setting": "FKBP46 [1]; 5000-fold excess of cold FK506, comparable with mock purified wild type extract, FIG. 3A columns 3, 5, 7", "value": "minimal"},
      {"measurement": "inhibition at 5 µM", "setting": "FKBP46 [2]", "value": "~50", "unit": "%"}
    ]},
    {"molecule": "hFKBP12: human FK binding protein FKBP12, comparison immunophilin", "values": [
      {"measurement": "specific activity", "setting": "[3]", "value": "about 4.3×10^6 s^-1. M^-1"}
    ]},
    {"molecule": "recombinant His-FKBP46", "values": [
      {"measurement": "peptidylprolyl cis-trans isomerase activity (chymotrypsin-coupled release of p-nitroanilide, absorbance at 400 nm)", "setting": "[4]", "value": "7.8e+06", "unit": "s⁻¹ M⁻¹"}
    ]},
    {"molecule": "[3H]CC([3H])C[C@@H]1/C=C(\\C)C[C@H](C)C[C@H](OC)[C@H]2O[C@@](O)(C(=O)C(=O)N3CCCC[C@H]3C(=O)O[C@H](/C(C)=C/[C@@H]3CC[C@@H](O)[C@H](OC)C3)[C@H](C)[C@@H](O)CC1=O)[C@H](C)C[C@@H]2OC", "note": "(stereo partly drawn) [[^3 H]dihydro-FK506]", "values": [
      {"measurement": "[3H]dihydro-FK506 binding to FKBP46 (radioactivity associated with resin)", "setting": "FKBP46 [1]; 50 nM [3H]dihydro-FK506, on ice 18 h, absence of cold FK506, FIG. 3A", "value": "can bind specifically to FKBP46 in a dose-dependent manner"}
    ]},
    {"molecule": "FKBP46: novel Sf9 insect cell nuclear immunophilin, SEQ ID NO:2; tested as recombinant His-tagged protein (protein, His tag, tested as recombinant His-tagged protein) MFWGLIMEPNKRYTQVVEKPFHISQAAMDISTGDNDPCQVMVVVDGKNFLVCTLQKGKIIQVPLDLYFKSGDSVSFLTNGKCNVHLTGYLDPEFEEDLEDEEEAEEEEEEEEAPPLVPAKNKRKLENANDATANKKAKPDKKAGKNSAPAAESDSDDDDEDQLQKFLDGEDIDTDENDESFKMNTSAEGDDSDEEDDDEDEEDEEDDDEDDEEEEEAPKKKKKQPAAEQDSTLDTSKESVDMSKLSKSQKRRLKKKLQQQAKQQPQVNGVDKPKKEEPQQKAEKKKPEAKKEEAPVEKKEKKQIAGGVSIEDLKVGSGPVAKAGKVVMVYYEGRLKQNNKMFDNCVKGPGFKFRLGSKEVISGWDVGIAGMKVGGKRKIVCPPAMAYGAKGSPPVIPPNSTLVFEVDLKNVK", "values": [
      {"measurement": "specific activity (first order rate constant / molar concentration)", "setting": "[5]", "value": "about 7.8×10^6 s^-1. M^-1"}
    ]}
  ]
}
